Measured values as given in US12728116B2, “Methods of treating multiple sclerosis” (Vanda Pharmaceuticals Inc., priority 2021, dated 2026).

Columns and labels:
Assay type in all cases: in vivo, human
[1] = test system: Patients (18-55 years) with RMS; assay: Prespecified MRI-based endpoints and NEDA-3 status
Experimental: Patients (18-55 years) with RMS (expanded disability status scale scores: 0-5.5) were randomized (1:1) to receive ponesimod (PON) 20 mg or teriflunomide (TER) 14 mg for 108 weeks. MRI assessments were: volume of T2 lesions; mean number of new gadolinium-enhancing (Gd+) T1 lesions and new/enlarging T2 lesions; and absence of active MRI lesions at week 108. NEDA-3 status (absence of confirmed relapse, Gd+T1 lesions and new/enlarging T2 lesions on annual MRIs, and 12-week confirmed disability accumulation) was evaluated from baseline to week 108.

[2] = test system: adult subjects with relapsing MS; assay: FSIQ-RMS weekly symptoms score, change from baseline to Week 108 (fatigue)
Experimental: In some embodiments, the patient-reported outcome questionnaire is the symptom domain of the FSIQ-RMS. The FSIQ-RMS symptom domain (FSIQ-RMS-S) consists of seven items assessing fatigue-related symptoms with a recall period of 24 hours measured on an 11-point numeric rating scale; the standardized symptom domain score ranges from 0 to 100 with a higher score indicating greater fatigue. This domain (i.e., section 1 of the questionnaire) is completed on 7 consecutive days.
As used herein, the term “patient level” refers to individual or within patient level of change. As used herein, “clinically meaningful” refers to the practical importance of a treatment effect and whether it has a real genuine, palpable, noticeable effect on symptoms and/or daily life. When interpreting data from a Patient Reported Outcome (PRO), for example, it is helpful to define a level of change on the PRO score over a predetermined time period that should be interpreted as a treatment benefit. Various terms are used for this level of change, including meaningful change threshold (MCT). This threshold can be used to conduct a responder analysis where an individual patient is a responder if the level of change on the PRO score for that patient exceeds the MCT. The proportion of responders between treatment groups can be compared to evaluate treatment effect. For example, in certain embodiments disclosed herein, there is an analysis of the percentage of responders in the ponesimod and teriflunomide treatment groups using an MCT of −6.3 on the FSIQ-RMS weekly symptom score. The percentage of subjects in the stable or improved category is also calculated. […] Accordingly, evaluation of within patient changes using MCT and associated responder analyses are used to provide additional interpretation to a p-value derived from a statistical test
For the MS symptoms domain, the FSIQ-RMS asks about a patient's fatigue-related symptoms of relapsing MS over the past 24 hours while doing routine daily activities (e.g., housework, yard work, shopping, working, etc.) for Items 1-6 or while at rest (e.g., reading a book, watching TV, etc.) for Item 7. Patients are asked to select a response on a scale of 0 to 10 that best describes their experience and are asked to not skip any questions, with no answers being right or wrong. • Item 1—In the past 24 hours, while doing routine daily activities, how physically tired did you feel? See FIG. 31. • Item 2—In the past 24 hours, while doing routine daily activities, how mentally tired did you feel? See FIG. 32. • Item 3—In the past 24 hours, while doing routine daily activities, how physical weak did you feel? See FIG. 33. • Item 4—In the past 24 hours, how would you rate your energy while doing routine daily activities? See FIG. 34. • Item 5—In the past 24 hours, while doing routine daily activities, how worn out did you feel? See FIG. 35. • Item 6—In the past 24 hours, while doing routine daily activities, how sleepy did you feel? See FIG. 36. • Item 7—In the past 24 hours, how worn out did you feel while at rest? MS-Related Impacts—13 Items
Secondary efficacy variables and testing strategy: Four secondary efficacy endpoints were analyzed as per the statistical testing strategy outlined in FIG. 1. • Change from baseline to Week 108 in fatigue-related symptoms as measured by the symptoms domain of the FSIQ-RMS patient-reported outcome [Fatigue] • Cumulative number of combined unique active lesions from baseline to Week 108 on brain MRI [CUALs] • Time to first 12-week confirmed disability accumulation (CDA) from baseline to EOS on Expanded Disability Status Scale (EDSS) [12-week CDA] • Time to first 24-week CDA from baseline to EOS on EDSS [24-week CDA] […]

[3] = test system: adult subjects with relapsing MS; assay: Treatment-emergent adverse events (Safety Set); details: for AESI effect on heart rate and rhythm (including hypotension) on Day 1: subjects with at least one AE, %: Day 1 (ponesimod dose 2 mg);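 for all read-outs here: safety Set comprises every randomized subject given one or more doses, analysed by the treatment actually received rather than the assigned arm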
Experimental: The Safety Set (SAF) included all randomized subjects who received at least one dose of study treatment. Subjects were analyzed based on actual treatment taken, not randomized treatment.

[4] = Week 108, Baseline EDSS <3.5 (title: ≤3.5)
[5] = Week 108, baseline fatigue below the median
[6] = Week 108, no Gd+ T1 lesions at baseline
[7] = Week 108, no prior DMT treatment within about two years
[8] = Week 108, no prior DMT treatment within about two years, listed as ponesimod
[9] = ponesimod 20 mg, teriflunomide 14 mg
[10] = treatment-emergent AESI, Safety Set
[11] = treatment-emergent AESI, Safety Set, listed as ponesimod
[12] = treatment-emergent, Safety Set, listed as ponesimod

## CCC/N=C1\S/C(=C\c2ccc(OC[C@H](O)CO)c(Cl)c2)C(=O)N1c1ccccc1C [Ponesimod, (R)-5-[3-chloro-4-(2,3-dihydroxy-propoxy)-benz[Z]ylidene]-2-([Z]-propylimino)-3-o-tolyl-thiazolidin-4-one]
[1]; At week 108
  Odds ratio for achieving NEDA-3, PON vs TER: 1.70
  Patients who achieved NEDA-3: 28.2%
[1]; baseline to week 108
  Mean number of new Gd+T1 lesions per scan: 0.18
  Mean numbers of new/enlarging T2 lesions per year: 1.40
  Rate ratio, new Gd+T1 lesions per scan, PON vs TER: 0.42
  Rate ratio, new/enlarging T2 lesions per year, PON vs TER: 0.44
[1]; baseline to week 108, PON 20 mg vs TER 14 mg
  Least square (LS) mean difference (PON-TER) in change from baseline in total volume of T2 lesions: −399.2 mm^3
[1]; week 108
  PON vs TER odds ratio for absence of new Gd+T1 lesions: 2.18
  PON vs TER odds ratio for absence of new/enlarging 12 lesions: 1.71
[2]; EDSS≤3 subgroup
  MS-fatigue (FSIQ-RMS) mean difference, change from baseline to week 108, ponesimod vs teriflunomide: −4.31
[2]; [4]
  FSIQ-RMS change: Improved (<−6.3), patients: 30.6%
  FSIQ-RMS change: Stable (−6.3 < x < +6.3), patients: 40.8%
  FSIQ-RMS change: Stable or Improved, patients: 71.4%
  FSIQ-RMS change: Worsened (≥6.3), patients: 28.6%
[2]; Week 108, Full Analysis Set
  FSIQ-RMS-S total score change: Improved (<−6.3), patients: 30.5%
  FSIQ-RMS-S total score change: Stable (−6.3 < x < +6.3), patients: 38.4%
  FSIQ-RMS-S total score change: Stable or Improved, patients: 68.9%
  FSIQ-RMS-S total score change: Worsened (≥6.3), patients: 31.1%
[2]; [5]
  FSIQ-RMS change: Improved (<−6.3), patients: 19.1%
  FSIQ-RMS change: Stable (−6.3 < x < +6.3), patients: 45.2%
  FSIQ-RMS change: Stable or Improved, patients: 64.4%
  FSIQ-RMS change: Worsened (≥6.3), patients: 35.6%
[2]; Week 108, baseline fatigue below the median, listed as ponesimod
  FSIQ-RMS change: Stable or Improved, patients: ~65%
[2]; [6]
  FSIQ-RMS change: Improved (<−6.3), patients: 30.0%
  FSIQ-RMS change: Stable (−6.3 < x < +6.3), patients: 37.4%
  FSIQ-RMS change: Stable or Improved, patients: 67.5%
  FSIQ-RMS change: Worsened (≥6.3), patients: 32.5%
[2]; Week 108, no Gd+ T1 lesions at baseline, listed as ponesimod
  FSIQ-RMS change: Stable or Improved, patients: about 68%
[2]; [7]
  FSIQ-RMS change: Improved (<−6.3), patients: 31.4%
  FSIQ-RMS change: Stable (−6.3 < x < +6.3), patients: 44.0%
  FSIQ-RMS change: Stable or Improved, patients: 75.4%
  FSIQ-RMS change: Worsened (≥6.3), patients: 24.6%
[2]; [8]
  FSIQ-RMS change: Improved (<−6.3), patients: 31.4%
  FSIQ-RMS change: Stable or Improved, patients: about 75%
[2]; ponesimod 20 mg vs teriflunomide 14 mg, Full Analysis Set
  Mean difference in FSIQ-RMS change from baseline to Week 108, ponesimod vs teriflunomide: −3.57
[2]; ponesimod 20 mg, teriflunomide 14 mg, full analysis set, increase = worsening
  Mean change from baseline to Week 108 in FSIQ-RMS weekly symptoms score (MMRM): −0.01
[3]; Safety Set
  AESI effect on heart rate and rhythm (including hypotension) on Day 1: subjects with at least one AE, %: (2.1) %
[3]; Safety Set, listed as ponesimod
  AESI effect on heart rate and rhythm (including hypotension) on Day 1: subjects with at least one AE, %: 2.1%
[3]; Day 1, Safety Set
  Day 1 AESI PT Atrioventricular block first degree, %: (0.5) %
  Day 1 AESI PT Bradycardia, %: (0.7) %
  Day 1 AESI PT Bundle branch block left, %: (0.2) %
  Day 1 AESI PT Bundle branch block right, %: (0.2) %
  Day 1 AESI PT Defect conduction intraventricular, %: (0.4) %
  Day 1 AESI PT Sinus arrhythmia, %: (0.2) %
  Day 1 AESI PT Sinus bradycardia, %: (0.2) %
[3]; [9]
  TEAE ALT increased, subjects: 19.5%
  TEAE headache, subjects: 11.5%
  TEAE nasopharyngitis, subjects: 19.3%
  TEAE upper respiratory tract infection, subjects: 10.6%
[3]; [10]
  AESI category Effect on heart rate and rhythm (including aypotension), %: (5.1) %
  AESI category Hepatobiliary disorders/Liver enzyme abnormality, %: (25.7) %
  AESI category Herpetic infection, %: (4.8) %
  AESI category Hypertension, %: (10.1) %
  AESI category Macular edema, %: (1.1) %
  AESI category Non-skin malignancy, %: (0.2) %
  AESI category Pulmonary events, %: (8.0) %
  AESI category Seizure, %: (1.4) %
  AESI category Skin malignancy, %: (0.9) %
[3]; [11]
  AESI category Hepatobiliary disorders/Liver enzyme abnormality, %: 25.7%
  AESI category Hypertension, %: 10.1%
  AESI category Pulmonary events, %: 8.0%
[3]; treatment-emergent AESI, only if reported as serious or severe, Safety Set
  AESI category Infection, %: (1.6) %
[3]; treatment-emergent, Safety Set
  AEs leading to premature discontinuation, SOC Blood and lymphatic system disorders, %: (0.5) %
  AEs leading to premature discontinuation, SOC Cardiac disorders, %: (0.2) %
  AEs leading to premature discontinuation, SOC Eye disorders, %: (0.9) %
  AEs leading to premature discontinuation, SOC Gastrointestinal disorders, %: (0.7) %
  AEs leading to premature discontinuation, SOC General disorders and administration site conditions, %: (0.5) %
  AEs leading to premature discontinuation, SOC Hepatobiliary disorders, %: (0.5) %
  AEs leading to premature discontinuation, SOC Investigations, %: (2.1) %
  AEs leading to premature discontinuation, SOC Musculoskeletal and connective tissue disorders, %: (0.2) %
  AEs leading to premature discontinuation, SOC Neoplasms benign, malignant and unspecified (incl cysts and polyps), %: (0.2) %
  AEs leading to premature discontinuation, SOC Nervous system disorders, %: (0.4) %
  AEs leading to premature discontinuation, SOC Pregnancy, puerperium and perinatal conditions, %: (0.5) %
  AEs leading to premature discontinuation, SOC Psychiatric disorders, %: (0.2) %
  AEs leading to premature discontinuation, SOC Respiratory, thoracic and mediastinal disorders, %: (1.2) %
  AEs leading to premature discontinuation, SOC Skin and subcutaneous tissue disorders, %: (0.2) %
  AEs leading to premature discontinuation, SOC Social circumstances, %: (0.4) %
  AEs leading to premature discontinuation, SOC Vascular disorders, %: (0.5) %
  Subjects with at least one AE leading to study drug discontinuation, %: (8.7) %
  Subjects with at least one AE, %: (88.8) %
  Subjects with at least one Drug-Related AE, %: (49.2) %
  Subjects with at least one Serious AE, %: (8.7) %
  Subjects with at least one Severe AE, %: (6.9) %
[3]; [12]
  Subjects with at least one AE leading to study drug discontinuation, %: 8.7%
  Subjects with at least one AE, %: 88.8%
  Subjects with at least one Serious AE, %: 8.7%
